Laboratory results from patent US10967069B2, “Bio-orthogonal drug activation” (TAGWORKS PHARMACEUTICALS B.V., priority 2011, dated 2021).
Like-named read-outs stand apart in the source and are kept apart here. Marks after values point to notes of the source that are not given here.

Columns and labels:
[1] = system: A431 squamous carcinoma cells; experiment: Cell proliferation assay (MTT)
Protocol: The cells were plated in 96-well plates (Nunc) at a 2500 cells/well density 24 hr prior to the experiment. Doxorubicin (Dox) and the prodrug minor-38 (1 mM in DMSO) and the tetrazine 7 (10 mM in PBS) were serially diluted in pre-warmed culture medium immediately before the experiment and added to the wells (200 μl final volume per well). The prodrug was either added alone or in combination with 10 μM or 1.5 mol eq. tetrazine 7 (with respect to the prodrug). After 72 hr incubation at 37° C., cell proliferation was assessed by an MTT assay. Briefly, methylthiazolyldiphenyltetrazolium bromide (MTT) was dissolved in PBS at 5 mg/ml, filtered through 0.22 μm and 25 μl was added to each well. After 120 min incubation at 37° C., the medium was gently aspirated. The formed formazan crystals were dissolved in 100 μl DMSO and the absorbance was measured with a plate reader (BMG Labtech) at 560 nm.

[2] = Reactivity of tetrazines towards trans-cyclooct-4-ene-1-ol (axial isomer), competition experiment; settings: reference tetrazine 5; acetonitrile/water
Protocol: A competition experiment was performed to determine the reactivity ratio of a specific tetrazine and 3-(5-acetamido-2-pyridyl)-6-(2-pyridyl)-1,2,4,5-tetrazine (5) (that was chosen as the reference tetrazine), in the inverse-electron demand Diels-Alder reaction with trans-cyclooct-4-ene-1-ol (“minor” isomer with OH in axial position, see: Whitham et al. J. Chem. Soc. (C), 1971, 883-896)).
To acetonitrile (0.100 mL) was added 5 μL of a solution of the specific tetrazine in DMSO (25 mM) and 5 μL of a solution of the reference tetrazine in DMSO (25 mM). This mixture was diluted with water (0.9 mL), and the absolute amounts of both tetrazines was determined by HPLC-MS/PDA analysis. Subsequently, a solution of trans-cyclooct-4-ene-1-ol (axial isomer) in DMSO (25 μL 2.5 mM) was slowly added, and the mixture was stirred for 5 min. Again, the absolute amounts of both tetrazines was determined by HPLC-MS/PDA analysis, and conversions for both tetrazines was calculated. From these conversions, the reactivity ratio (R=k2,TCO/k2,Ref) of both tetrazines was calculated using the mathematical procedure from Ingold and Shaw (J. Chem. Soc., 1927, 2918-2926).

[3] = Protocol: 3-(2-Pyridyl)-6-methyl-1,2,4,5-tetrazine (7, 4.33×10^−6 g; 2.50×10^−8 mol) was dissolved in PBS buffer (1 mL) (c=25 μM). Next, minor-(E)-cyclooct-2-en-1-yl doxorubicin carbamate (38, the isomer with the carbamate in the axial position; 1.74×10^−5 g; 2.50×10^−8 mol) was added. The solution was stirred at 20° C. for 4 hr.
3-(2-Pyridyl)-6-methyl-1,2,4,5-tetrazine (7, 4.33×10^−6 g; 2.50×10^−8 mol) was dissolved in PBS buffer (1 mL) (c=25 μM). Next, major-(E)-cyclooct-2-en-1-yl doxorubicin carbamate (38, the isomer with the carbamate in the equatorial position; 1.74×10^−5 g; 2.50×10^−8 mol) was added. The solution was stirred at 20° C. for 16 hr.
3,6-Bis(2-aminophenyl)-1,2,4,5-tetrazine (9, 2.64×10^−6 g; 1.00×10^−8 mol) was dissolved in acetonitrile (0.1 mL). This mixture was diluted with PBS buffer (0.9 mL). Next, minor-(E)-cyclooct-2-en-1-yl doxorubicin carbamate (38; 6.96×10^−6 g; 1.00×10^−8 mol) was added.

[4] = Reactivity of tetrazines towards trans-cyclooct-4-ene-1-ol (axial isomer), competition experiment; settings: values marked *: 50:50 mixture of PBS and acetonitrile; reference tetrazine 5
[5] = Second-order rate constant of trans-cyclooctene derivatives in inverse-electron demand Diels-Alder reaction (UV-visible spectroscopy); settings: UV-visible spectroscopy in acetonitrile at 20° C.
Protocol: The kinetics of the inverse-electron demand Diels-Alder reaction of a trans-cyclooctene derivative with 3-(5-acetamido-2-pyridyl)-6-(2-pyridyl)-1,2,4,5-tetrazine (5), performed in acetonitrile at 20° C., was determined using UV-visible spectroscopy. A cuvette was filled with acetonitrile (3 mL) and equilibrated at 20° C. 3-(5-Acetamido-2-pyridyl)-6-(2-pyridyl)-1,2,4,5-tetrazine (5, 2.50×10^−7 mol) was added, followed by the trans-cyclooctene derivative (2.50×10^−7 mol). The decay of the absorption at λ=540 nm was monitored, and from this curve the second-order rate constant, k2, was determined assuming second order rate kinetics.

[6] = Reactivity of trans-cyclooctene derivatives, competition experiment; settings: reference trans-cyclooct-4-ene-1-ol (axial isomer)
Protocol: A competition experiment was performed to determine the reactivity ratio of a specific trans-cyclooctene derivative and trans-cyclooct-4-ene-1-ol (axial isomer) (that was chosen as the reference trans-cyclooctene), in the inverse-electron demand Diels-Alder reaction with bis(2-pyridyl)-1,2,4,5-tetrazine (2).
This mixture was diluted with water (0.45 mL). Subsequently, a solution of bis(2-pyridyl)-1,2,4,5-tetrazine (2, 6.25×10^−8 mol) in a mixture of acetonitrile (0.05 mL) and water (0.45 mL) was slowly added while stirring vigorously. After addition, the mixture was stirred for an additional 5 min. The conversion of both trans-cyclooctene derivatives was determined by HPLC-MS/PDA analysis, and from these conversions, the reactivity ratio (R=k2,TCO/k2,Ref) of the specific trans-cyclooctene derivative was calculated using the mathematical procedure from Ingold and Shaw (J. Chem. Soc., 1927, 2918-2926).

[7] = Activation of model prodrugs: reaction with 1,2,4,5-tetrazines and elimination of the model drug (HPLC-MS); settings: for release of 3,5-dimethylaniline: 20 hr
[8] = with tetrazine 7, c=25 μM, PBS, 20° C., 16 hr

## Cc1nnc(-c2ccccn2)nn1 [Tetrazine 7, 3-(2-pyridyl)-6-methyl-1,2,4,5-tetrazine]
[1]; Homo sapiens, A-431, 72 h
  IC50: > 100000 nM

## c1ccc(-c2nnc(-c3ccccn3)nn2)nc1
[2]
  Reactivity ratio (R = k2,TZ/k2,Ref): 1.17

## c1cnc(-c2nnc(-c3cnccn3)nn2)cn1
[2]
  Reactivity ratio (R = k2,TZ/k2,Ref): 1.5

## c1cncc(-c2nnc(-c3cccnc3)nn2)c1
[2]
  Reactivity ratio (R = k2,TZ/k2,Ref): 0.19

## Nc1ccc(-c2nnc(-c3ccccn3)nn2)nc1
[2]
  Reactivity ratio (R = k2,TZ/k2,Ref): 0.4

## COc1cccc2c1C(=O)c1c(O)c3c(c(O)c1C2=O)C[C@@](O)(C(=O)CO)C[C@@H]3O[C@H]1C[C@H](N)[C@H](O)[C@H](C)O1 [Dox, Doxorubicin, reference compound]
[1]; Homo sapiens, A-431, 72 h
  IC50: 20 ± 2 nM

## Fc1ccc(-c2nnc(-c3ccc(F)cn3)nn2)nc1
[2]
  Reactivity ratio (R = k2,TZ/k2,Ref): 1.07

## CCCC(=O)Nc1ccc(-c2nnc(C)nn2)nc1
[2]
  Reactivity ratio (R = k2,TZ/k2,Ref): 0.18

## CCCC(=O)Nc1ccc(-c2nnc(-c3ccc(F)cn3)nn2)nc1
[2]
  Reactivity ratio (R = k2,TZ/k2,Ref): 0.95

## COc1cccc2c1C(=O)c1c(O)c3c(c(O)c1C2=O)C[C@@](O)(C(=O)CO)C[C@@H]3O[C@H]1C[C@H](NC(=O)OC2/C=C/CCCCC2)[C@H](O)[C@H](C)O1 (stereo partly drawn) [major-38, major-(E)-cyclooct-2-en-1-yl doxorubicin carbamate]
[3]; [8]
  conversion of the DA-reaction: 40%
  release of doxorubicin (yield): 20%

## Nc1ccccc1-c1nnc(-c2ccccc2N)nn1
[4]
  Reactivity ratio (R = k2,TZ/k2,Ref): <0.01*

## Cc1nnc(-c2ccccn2)nn1 [drawing 93]
[2]
  Reactivity ratio (R = k2,TZ/k2,Ref): 0.25

## Oc1ccc(-c2nnc(-c3ccc(O)cc3)nn2)cc1
[4]
  Reactivity ratio (R = k2,TZ/k2,Ref): <0.01*

## FC(F)(F)c1ccc(-c2nnc(-c3ccc(C(F)(F)F)cn3)nn2)nc1
[4]
  Reactivity ratio (R = k2,TZ/k2,Ref): 5.3*

## c1ccc(-c2nnc(-c3ccccc3)nn2)cc1
[4]
  Reactivity ratio (R = k2,TZ/k2,Ref): <0.01*

## c1ccc(-c2nncnn2)nc1
[2]
  Reactivity ratio (R = k2,TZ/k2,Ref): 3.06

## c1csc(-c2nnc(-c3cccs3)nn2)c1
[4]
  Reactivity ratio (R = k2,TZ/k2,Ref): <0.01*

## CCCC(=O)Nc1ccc(-c2nnc(-c3ccc(C(F)(F)F)cn3)nn2)nc1
[4]
  Reactivity ratio (R = k2,TZ/k2,Ref): 1.84*

## O=C1CCCC(=O)N1c1ccc(-c2nnc(-c3ccccn3)nn2)nc1
[2]
  Reactivity ratio (R = k2,TZ/k2,Ref): 1.6

## CCCNC(=O)c1ccc(-c2nnc(-c3ccccn3)nn2)nc1
[2]
  Reactivity ratio (R = k2,TZ/k2,Ref): 1.76

## CC(=O)Nc1ccc(-c2nnc(-c3ccccn3)nn2)nc1
[2]
  Reactivity ratio (R = k2,TZ/k2,Ref): 1

## c1c[nH]c(-c2nnc(-c3ccc[nH]3)nn2)c1
[4]
  Reactivity ratio (R = k2,TZ/k2,Ref): <0.01*

## Nc1cccc(-c2nnc(-c3ccccc3)nn2)c1
[4]
  Reactivity ratio (R = k2,TZ/k2,Ref): <0.01*

## O=C(NCc1ccccc1)OC1/C=C/CCCCC1 (stereo not drawn) [drawing 104]
[5]
  rate contant k2: 40 M⁻¹ s⁻¹
[6]
  reactivity ratio (R = k2,TC0/k2,Ref): 0.067

## Cc1cc(C)cc(NC(=O)OC2/C=C/CCCCC2)c1 (stereo not drawn) [drawing 106]
[5]
  rate contant k2: 0.15 M⁻¹ s⁻¹

## Nc1ccc(-c2nnc(-c3ccc(N)cc3)nn2)cc1
[4]
  Reactivity ratio (R = k2,TZ/k2,Ref): <0.01*

## Cc1cc(C)cc(NC(=O)OC2/C=C/CCCCC2)c1 (stereo not drawn) [minor-33, (E)-cyclooct-2-en-1-yl (3,5-dimethylphenyl)carbamate]
[7]; with 3,6-Bis(2-aminophenyl)-1,2,4,5-tetrazine (9), acetonitrile/PBS, 20° C.
  release of 3,5-dimethylaniline: release of 3,5-dimethylaniline
[7]; with 3,6-Bis(4-hydroxyphenyl)-1,2,4,5-tetrazine (11), acetonitrile/PBS, 20° C.
  release of 3,5-dimethylaniline: release of 3,5-dimethylaniline
[7]; with 3,6-Diphenyl-1,2,4,5-tetrazine, acetonitrile/PBS, 20° C.
  release of 3,5-dimethylaniline: release of 3,5-dimethylaniline
[7]; with 3-(2-Pyridyl)-6-methyl-1,2,4,5-tetrazine (7), PBS, 20° C.
  release of 3,5-dimethylaniline: release of 3,5-dimethylaniline

## O=C(NCc1ccccc1)OC1/C=C/CCCCC1 (stereo not drawn) [drawing 103]
[5]
  rate contant k2: 0.26 M⁻¹ s⁻¹

## COc1cccc2c1C(=O)c1c(O)c3c(c(O)c1C2=O)C[C@@](O)(C(=O)CO)C[C@@H]3O[C@H]1C[C@H](NC(=O)OC2/C=C/CCCCC2)[C@H](O)[C@H](C)O1 (stereo partly drawn) [minor-38, minor-(E)-cyclooct-2-en-1-yl doxorubicin carbamate]
[3]; with tetrazine 7, c=25 μM, PBS, 20° C., 4 hr
  release of doxorubicin (yield): 69%
[3]; with tetrazine 7, concentrations of 2.5 and 1.0 μM
  release of doxorubicin at lower concentrations: Comparable results
[3]; with tetrazine 9, acetonitrile/PBS, 20° C., 18 hr
  release of doxorubicin (yield): 90%
[1]; A431, 72 hr, + tetrazine 7 (10 μM), constant amount
  IC50: 278 ± 22 nM
[1]; A431, 72 hr, + tetrazine 7 (1.5 eq.), serial dilutions
  IC50: 137 ± 12 nM
[1]; A431 cell line, 72 hr, MTT, compound alone
  IC50: 3020 ± 486 nM

## c1c[nH]c(-c2nnc(-c3ncc[nH]3)nn2)n1
[2]
  Reactivity ratio (R = k2,TZ/k2,Ref): 1.2

## Cc1cc(C)cc(NC(=O)OC2/C=C/CCCCC2)c1 (stereo not drawn) [drawing 105]
[5]
  rate contant k2: 25.7 M⁻¹ s⁻¹

## NCc1ccc(-c2nncnn2)cc1
[2]
  Reactivity ratio (R = k2,TZ/k2,Ref): 0.77

## OC1CC/C=C/CCC1 (stereo not drawn)
[5]
  rate contant k2: 577 M⁻¹ s⁻¹
[6]
  reactivity ratio (R = k2,TC0/k2,Ref): 1

## CCCC(=O)Nc1ccc(-c2nnc(-c3ncccn3)nn2)nc1
[2]
  Reactivity ratio (R = k2,TZ/k2,Ref): 2.7

## Nc1ccc(-c2nnc(-c3ccccc3)nn2)cc1
[4]
  Reactivity ratio (R = k2,TZ/k2,Ref): <0.01*

## c1cc(-c2nnc(-c3ccncc3)nn2)ccn1
[2]
  Reactivity ratio (R = k2,TZ/k2,Ref): 0.83

## c1cc(-c2nnc(-c3ccsc3)nn2)cs1
[4]
  Reactivity ratio (R = k2,TZ/k2,Ref): <0.01*

## O=C(NCc1ccccc1)OC1/C=C/CCCCC1 (stereo not drawn) [minor-32, (E)-cyclooct-2-en-1-yl benzylcarbamate]
[7]; with 3,6-Bis(2-aminophenyl)-1,2,4,5-tetrazine (9), DMSO-d6/D2O, 20° C., 24 hr
  release of benzylamine: release of benzylamine
[7]; with 3,6-Bis(2-pyridinyl)-1,2,4,5-tetrazine (2), acetonitrile/water, 20° C., 24 hr
  release of benzylamine: release of benzylamine
[7]; with 3,6-Bis(4-hydroxyphenyl)-1,2,4,5-tetrazine (11), acetonitrile/water, 20° C., 5 hr
  release of benzylamine: release of benzylamine
[7]; with 3,6-Diphenyl-1,2,4,5-tetrazine, general procedure
  release of benzylamine: release of benzylamine
[7]; with 6-H-3-(4-Aminomethylphenyl)-1,2,4,5-tetrazine, general procedure
  release of benzylamine: release of benzylamine
[7]; with 6-Methyl-3-(4-butanamido-2-pyridinyl)-1,2,4,5-tetrazine, general procedure
  release of benzylamine: release of benzylamine
[7]; with 6-Phenyl-3-(3-aminophenyl)-1,2,4,5-tetrazine, general procedure
  release of benzylamine: release of benzylamine
[7]; with 6-Phenyl-3-(4-aminophenyl)-1,2,4,5-tetrazine, general procedure
  release of benzylamine: release of benzylamine

## CCCC(=O)Nc1ccc(-c2nncnn2)nc1
[2]
  Reactivity ratio (R = k2,TZ/k2,Ref): 2.8
